Data from PubChem BioAssay AID2060900 (Molecular Pharmacology Branch, DTP, NCI, 2025).

System: 521955-158-R2-J5-PDC complex spheroids, viability
Assay: Anticancer human tumor 521955-158-R2-J5-PDC patient-derived pancreatic carcinoma cell line growth inhibition [RAS]
Conditions: second compound 0.316 µM; first compound 0.1 µM; stronger effect = lower value
In short: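 Multi-cell-type spheroids: tumor cells plus HUVEC endothelial cells and mesenchymal stem cells. RAS-pathway inhibitors were combined with targeted agents, each dosed in half-log steps down from clinical Cmax, or from 10 microM when Cmax was unknown.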
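Also: spheroids also contain HUVEC endothelial cells and mesenchymal stem cells as stroma; compound exposure lasted seven days before the viability read.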

| SMILES | viability, T/C |
| --- | --- |
| CC1(O)CCCC1n1c(=O)c(C(F)F)cc2cnc(NC3CCN(S(C)(=O)=O)CC3)nc21 (stereo unspecified) + C=CC(=O)N1CCN(c2nc(OCC3CCCN3C)nc3c(F)c(-c4nc(N)cc(C)c4C(F)(F)F)c(Cl)cc23)C(C)C1 | 79.3% |
| CCC(CC)c1cc(NC2CCC(N)C2)n2nccc2n1 (stereo unspecified) + C=CC(=O)N1CCN(c2nc(OCC3CCCN3C)nc3c(F)c(-c4nc(N)cc(C)c4C(F)(F)F)c(Cl)cc23)C(C)C1 | 105% |
| CCN1CCN(Cc2ccc(Nc3ncc(F)c(-c4cc(F)c5nc(C)n(C(C)C)c5c4)n3)nc2)CC1 + C=CC(=O)N1CCN(c2nc(OCC3CCCN3C)nc3c(F)c(-c4nc(N)cc(C)c4C(F)(F)F)c(Cl)cc23)C(C)C1 | 96.4% |
| Cc1nc(N2CCC3(CC2)COC(C)C3N)c(CO)nc1Sc1ccnc(N)c1Cl (stereo unspecified) + C=CC(=O)N1CCN(c2nc(OCC3CCCN3C)nc3c(F)c(-c4nc(N)cc(C)c4C(F)(F)F)c(Cl)cc23)C(C)C1 | 80.3% |
| NC1c2ccccc2OC12CCN(c1cnc3c(N4CCCc5ncccc54)n[nH]c3n1)CC2 (stereo unspecified) + C=CC(=O)N1CCN(c2nc(OCC3CCCN3C)nc3c(F)c(-c4nc(N)cc(C)c4C(F)(F)F)c(Cl)cc23)C(C)C1 | 59.2% |

Same assay, conditions: second compound 0.316 µM; first compound 0.316 µM; stronger effect = lower value

| SMILES | viability, T/C |
| --- | --- |
| CC1(O)CCCC1n1c(=O)c(C(F)F)cc2cnc(NC3CCN(S(C)(=O)=O)CC3)nc21 (stereo unspecified) + C=CC(=O)N1CCN(c2nc(OCC3CCCN3C)nc3c(F)c(-c4nc(N)cc(C)c4C(F)(F)F)c(Cl)cc23)C(C)C1 | 78.3% |
| CCC(CC)c1cc(NC2CCC(N)C2)n2nccc2n1 (stereo unspecified) + C=CC(=O)N1CCN(c2nc(OCC3CCCN3C)nc3c(F)c(-c4nc(N)cc(C)c4C(F)(F)F)c(Cl)cc23)C(C)C1 | 119% |
| CCN1CCN(Cc2ccc(Nc3ncc(F)c(-c4cc(F)c5nc(C)n(C(C)C)c5c4)n3)nc2)CC1 + C=CC(=O)N1CCN(c2nc(OCC3CCCN3C)nc3c(F)c(-c4nc(N)cc(C)c4C(F)(F)F)c(Cl)cc23)C(C)C1 | 107% |
| Cc1nc(N2CCC3(CC2)COC(C)C3N)c(CO)nc1Sc1ccnc(N)c1Cl (stereo unspecified) + C=CC(=O)N1CCN(c2nc(OCC3CCCN3C)nc3c(F)c(-c4nc(N)cc(C)c4C(F)(F)F)c(Cl)cc23)C(C)C1 | 61% |
| NC1c2ccccc2OC12CCN(c1cnc3c(N4CCCc5ncccc54)n[nH]c3n1)CC2 (stereo unspecified) + C=CC(=O)N1CCN(c2nc(OCC3CCCN3C)nc3c(F)c(-c4nc(N)cc(C)c4C(F)(F)F)c(Cl)cc23)C(C)C1 | 58.1% |

Same assay, conditions: second compound 0.316 µM; first compound 1 µM; stronger effect = lower value

| SMILES | viability, T/C |
| --- | --- |
| CC1(O)CCCC1n1c(=O)c(C(F)F)cc2cnc(NC3CCN(S(C)(=O)=O)CC3)nc21 (stereo unspecified) + C=CC(=O)N1CCN(c2nc(OCC3CCCN3C)nc3c(F)c(-c4nc(N)cc(C)c4C(F)(F)F)c(Cl)cc23)C(C)C1 | 89.8% |
| CCC(CC)c1cc(NC2CCC(N)C2)n2nccc2n1 (stereo unspecified) + C=CC(=O)N1CCN(c2nc(OCC3CCCN3C)nc3c(F)c(-c4nc(N)cc(C)c4C(F)(F)F)c(Cl)cc23)C(C)C1 | 133% |
| CCN1CCN(Cc2ccc(Nc3ncc(F)c(-c4cc(F)c5nc(C)n(C(C)C)c5c4)n3)nc2)CC1 + C=CC(=O)N1CCN(c2nc(OCC3CCCN3C)nc3c(F)c(-c4nc(N)cc(C)c4C(F)(F)F)c(Cl)cc23)C(C)C1 | 97.6% |
| Cc1nc(N2CCC3(CC2)COC(C)C3N)c(CO)nc1Sc1ccnc(N)c1Cl (stereo unspecified) + C=CC(=O)N1CCN(c2nc(OCC3CCCN3C)nc3c(F)c(-c4nc(N)cc(C)c4C(F)(F)F)c(Cl)cc23)C(C)C1 | 61.3% |
| NC1c2ccccc2OC12CCN(c1cnc3c(N4CCCc5ncccc54)n[nH]c3n1)CC2 (stereo unspecified) + C=CC(=O)N1CCN(c2nc(OCC3CCCN3C)nc3c(F)c(-c4nc(N)cc(C)c4C(F)(F)F)c(Cl)cc23)C(C)C1 | 59.5% |

Same assay, conditions: second compound 0.316 µM; first compound 3.16 µM; stronger effect = lower value

| SMILES | viability, T/C |
| --- | --- |
| CC1(O)CCCC1n1c(=O)c(C(F)F)cc2cnc(NC3CCN(S(C)(=O)=O)CC3)nc21 (stereo unspecified) + C=CC(=O)N1CCN(c2nc(OCC3CCCN3C)nc3c(F)c(-c4nc(N)cc(C)c4C(F)(F)F)c(Cl)cc23)C(C)C1 | 116% |
| CCC(CC)c1cc(NC2CCC(N)C2)n2nccc2n1 (stereo unspecified) + C=CC(=O)N1CCN(c2nc(OCC3CCCN3C)nc3c(F)c(-c4nc(N)cc(C)c4C(F)(F)F)c(Cl)cc23)C(C)C1 | 11.5% |
| Cc1nc(N2CCC3(CC2)COC(C)C3N)c(CO)nc1Sc1ccnc(N)c1Cl (stereo unspecified) + C=CC(=O)N1CCN(c2nc(OCC3CCCN3C)nc3c(F)c(-c4nc(N)cc(C)c4C(F)(F)F)c(Cl)cc23)C(C)C1 | 64.8% |
| NC1c2ccccc2OC12CCN(c1cnc3c(N4CCCc5ncccc54)n[nH]c3n1)CC2 (stereo unspecified) + C=CC(=O)N1CCN(c2nc(OCC3CCCN3C)nc3c(F)c(-c4nc(N)cc(C)c4C(F)(F)F)c(Cl)cc23)C(C)C1 | 46.1% |

Same assay, conditions: second compound 0.316 µM; first compound 10 µM; stronger effect = lower value

| SMILES | viability, T/C |
| --- | --- |
| CC1(O)CCCC1n1c(=O)c(C(F)F)cc2cnc(NC3CCN(S(C)(=O)=O)CC3)nc21 (stereo unspecified) + C=CC(=O)N1CCN(c2nc(OCC3CCCN3C)nc3c(F)c(-c4nc(N)cc(C)c4C(F)(F)F)c(Cl)cc23)C(C)C1 | 12.7% |
| CCC(CC)c1cc(NC2CCC(N)C2)n2nccc2n1 (stereo unspecified) + C=CC(=O)N1CCN(c2nc(OCC3CCCN3C)nc3c(F)c(-c4nc(N)cc(C)c4C(F)(F)F)c(Cl)cc23)C(C)C1 | 9.87% |
| Cc1nc(N2CCC3(CC2)COC(C)C3N)c(CO)nc1Sc1ccnc(N)c1Cl (stereo unspecified) + C=CC(=O)N1CCN(c2nc(OCC3CCCN3C)nc3c(F)c(-c4nc(N)cc(C)c4C(F)(F)F)c(Cl)cc23)C(C)C1 | 56% |
| NC1c2ccccc2OC12CCN(c1cnc3c(N4CCCc5ncccc54)n[nH]c3n1)CC2 (stereo unspecified) + C=CC(=O)N1CCN(c2nc(OCC3CCCN3C)nc3c(F)c(-c4nc(N)cc(C)c4C(F)(F)F)c(Cl)cc23)C(C)C1 | 60.5% |

Same assay, conditions: second compound 1 µM; first compound 0.00316 µM; stronger effect = lower value

| SMILES | viability, T/C |
| --- | --- |
| CCN1CCN(Cc2ccc(Nc3ncc(F)c(-c4cc(F)c5nc(C)n(C(C)C)c5c4)n3)nc2)CC1 + C=CC(=O)N1CCN(c2nc(OCC3CCCN3C)nc3c(F)c(-c4nc(N)cc(C)c4C(F)(F)F)c(Cl)cc23)C(C)C1 | 120% |

Same assay, conditions: second compound 1 µM; first compound 0.01 µM; stronger effect = lower value

| SMILES | viability, T/C |
| --- | --- |
| CCN1CCN(Cc2ccc(Nc3ncc(F)c(-c4cc(F)c5nc(C)n(C(C)C)c5c4)n3)nc2)CC1 + C=CC(=O)N1CCN(c2nc(OCC3CCCN3C)nc3c(F)c(-c4nc(N)cc(C)c4C(F)(F)F)c(Cl)cc23)C(C)C1 | 92% |

Same assay, conditions: second compound 1 µM; first compound 0.0316 µM; stronger effect = lower value

| SMILES | viability, T/C |
| --- | --- |
| CC1(O)CCCC1n1c(=O)c(C(F)F)cc2cnc(NC3CCN(S(C)(=O)=O)CC3)nc21 (stereo unspecified) + C=CC(=O)N1CCN(c2nc(OCC3CCCN3C)nc3c(F)c(-c4nc(N)cc(C)c4C(F)(F)F)c(Cl)cc23)C(C)C1 | 127% |
